Data on one compound can be found in US9199959B2, “HIV replication inhibitor” (Shionogi & Co., Ltd., priority 2011, dated 2015).

pEC50: −log10 of the molar value.

One series concerns the target T1, CYP3A4 (Homo sapiens, UniProt P08684).
T1 construct: enzyme, pooled human hepatic microsome 0.2 mg protein/mL; from tissue; host or cells: pooled human liver microsomes
The experiment in a line: CYP inhibition assay, terfenedine hydroxylation. The class given is in vitro ADME. The settings on record: pooled human liver microsomes, probe terfenedine (hydroxylation), 1 μmol/L, pooled human hepatic microsome. The protocol:
(§1) Using commercially available pooled human hepatic microsome, and employing, as markers, 7-ethoxyresorufin O-deethylation (CYP1A2), tolbutamide methyl-hydroxylation (CYP2C9), mephenytoin 4′-hydroxylation (CYP2C19), dextromethorphan O-demethylation (CYP2D6), and terfenedine hydroxylation (CYP3A4) as typical substrate metabolism reactions of human main five CYP enzyme forms (CYP1A2, 2C9, 2C19, 2D6, 3A4), an inhibitory degree of each metabolite production amount by a test compound was assessed.
(§2) The reaction conditions were as follows: substrate, 0.5 μmol/L ethoxyresorufin (CYP1A2), 100 μmol/L tolbutamide (CYP2C9), 50 μmol/L S-mephenytoin (CYP2C19), 5 μmol/L dextromethorphan (CYP2D6), 1 μmol/L terfenedine (CYP3A4); reaction time, 15 minutes; reaction temperature, 37° C.; enzyme, pooled human hepatic microsome 0.2 mg protein/mL; test drug concentration, 1, 5, 10, 20 μmol/L (four points).
(§3) Each five kinds of substrates, human hepatic microsome, and a test drug in 50 mmol/L Hepes buffer as a reaction solution was added to a 96-well plate as the composition as described above, NADPH, as a cofactor was added to initiate metabolism reactions as markers and, after the incubation at 37° C. for 15 minutes, a methanol/acetonitrile=1/1 (v/v) solution was added to stop the reaction. After the centrifugation at 3000 rpm for 15 minutes, resorufin (CYP1A2 metabolite) in the supernatant was quantified by a fluorescent multilabel counter and tolbutamide hydroxide (CYP2C9 metabolite), mephenytoin 4′ hydroxide (CYP2C19 metabolite), dextrorphan (CYP2D6 metabolite), and terfenadine alcohol (CYP3A4 metabolite) were quantified by LC/MS/MS.
(§4) A reaction system containing only DMSO which is a solvent for dissolving a drug was adopted as a control (100%), and the remaining activity (%) was calculated, then IC50 was calculated by reverse presumption with a logistic model using a concentration and an inhibition rate.

The subject of another series is HIV (HTLV-III B strain). In words: HIV replication inhibition assay (MTT, MT-4 cells). Conditions: Human immunodeficiency virus 1, MT4, 96 h, four days culture, concentration at which cell cytotoxicity by virus is inhibited 50%. Type of series: cell-based. How it is done:
HIV (HTLV-III B strain) persistent infected human T cell strain Molt-4 clone 8 was cultured in 10% Fetal Bovine Serum-containing RPMI-1640 medium and the supernatant was filtrated, then the virus titer was measured and the solution was stored at −80° C. Each anti-human immunodeficiency virus active substance was diluted with the above cultured medium to the designated concentration, which was dispensed into 96 well micro plate by 50 μL. Next, a MT-4 cell suspended liquid was dispensed by 100 μL (2.5×10^4 cells), then the above HIV-containing supernatant diluted with the above cultured medium was added thereto by 50 μL (60 pfu (plaque forming unit)).
The obtained mixture was cultured at 37° C. in CO2 incubator for four days, then 3-(4,5-dimehylthiazole-2-yl)-2,5-diphenyltetrazolynium bromide (MTT) 5 mg/mL in PBS was added to each well by 30 μL, followed by 1 hr-cultivation. In this step, as formazan was precipitated by reduction of MTT in living cells, the cell supernatant was removed from all well by 150 μL, then a 150 μL of solution (10% Triton X-100 and […]) was added thereto, followed by shaking with a plate mixer, to elute formazan. The formazan was measured with a microreader at OD: 560 nm and 690 nm (wavelength) and the result was compared with the reference. EC50 means the compound concentration at which cell cytotoxicity by virus is inhibited 50%.

The target of series [1] is T2, human ether-a-go-go related gene (hERG) channel (Homo sapiens, UniProt Q12809).
T2 construct: expressed in transfected cells; host or cells: HEK293
T2 sequence (Q12809 whole entry): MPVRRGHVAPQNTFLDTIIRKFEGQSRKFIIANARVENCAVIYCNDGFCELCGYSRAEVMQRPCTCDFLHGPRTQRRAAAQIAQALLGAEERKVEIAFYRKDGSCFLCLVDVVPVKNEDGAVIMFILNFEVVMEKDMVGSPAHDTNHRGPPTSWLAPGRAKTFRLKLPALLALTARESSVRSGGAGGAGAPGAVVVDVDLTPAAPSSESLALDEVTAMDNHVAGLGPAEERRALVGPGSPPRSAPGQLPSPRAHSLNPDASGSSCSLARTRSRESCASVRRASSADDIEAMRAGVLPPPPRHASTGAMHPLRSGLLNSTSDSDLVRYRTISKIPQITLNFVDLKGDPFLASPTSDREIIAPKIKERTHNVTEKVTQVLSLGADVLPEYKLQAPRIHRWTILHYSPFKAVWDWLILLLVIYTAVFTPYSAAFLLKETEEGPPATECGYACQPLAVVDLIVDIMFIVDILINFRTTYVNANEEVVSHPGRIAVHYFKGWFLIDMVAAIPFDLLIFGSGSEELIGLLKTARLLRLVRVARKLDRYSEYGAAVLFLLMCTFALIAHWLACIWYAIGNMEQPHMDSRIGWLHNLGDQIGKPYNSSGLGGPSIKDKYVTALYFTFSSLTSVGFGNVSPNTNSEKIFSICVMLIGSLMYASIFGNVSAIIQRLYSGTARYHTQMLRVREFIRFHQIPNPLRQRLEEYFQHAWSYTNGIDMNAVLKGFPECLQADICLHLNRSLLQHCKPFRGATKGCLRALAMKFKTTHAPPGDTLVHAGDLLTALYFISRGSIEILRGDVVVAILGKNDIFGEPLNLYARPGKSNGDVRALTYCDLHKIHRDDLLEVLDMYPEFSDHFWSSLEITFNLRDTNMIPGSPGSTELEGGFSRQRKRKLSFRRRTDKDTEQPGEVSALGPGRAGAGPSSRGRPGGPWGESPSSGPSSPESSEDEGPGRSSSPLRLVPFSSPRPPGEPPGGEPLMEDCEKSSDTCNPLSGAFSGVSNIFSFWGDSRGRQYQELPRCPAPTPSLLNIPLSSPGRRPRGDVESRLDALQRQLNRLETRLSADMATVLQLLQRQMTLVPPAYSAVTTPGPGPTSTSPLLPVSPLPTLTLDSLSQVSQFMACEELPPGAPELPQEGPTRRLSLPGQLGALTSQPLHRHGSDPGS
In words: hERG test, whole cell patch clamp. Type of series: cell-based. Conditions: HEK293 cells expressing hERG channel. From the text: For the purpose of assessing risk of an electrocardiogram QT interval prolongation, effects on delayed rectifier K+ current (IKr), which plays an important role in the ventricular repolarization process of the compound of the present invention, was studied using HEK293 cells expressing human ether-a-go-go related gene (hERG) channel.
After a cell was retained at a membrane potential of −80 mV by whole cell patch clamp method using an automated patch clamp system (PatchXpress 7000A, Axon Instruments Inc.), IKr induced by depolarization pulse stimulation at +40 mV for 2 seconds and, further, repolarization pulse stimulation at −50 mV for 2 seconds was recorded. […] From the recording IKr, an absolute value of the tail peak current was measured based on the current value at the resting membrane potential using an analysis software (DataXpress ver. 1, Molecular Devices Corporation). Further, the inhibition relative to the tail peak current before application of the test substance was calculated, and compared with the vehicle-applied group (0.1% dimethyl sulfoxide solution) to assess influence of the test substance on IKr.

A further series deals with T3, CYP1A2 (Homo sapiens, UniProt P05177).
T3 construct: enzyme, pooled human hepatic microsome 0.2 mg protein/mL; from tissue; host or cells: pooled human liver microsomes
T3 sequence (P05177 1-516): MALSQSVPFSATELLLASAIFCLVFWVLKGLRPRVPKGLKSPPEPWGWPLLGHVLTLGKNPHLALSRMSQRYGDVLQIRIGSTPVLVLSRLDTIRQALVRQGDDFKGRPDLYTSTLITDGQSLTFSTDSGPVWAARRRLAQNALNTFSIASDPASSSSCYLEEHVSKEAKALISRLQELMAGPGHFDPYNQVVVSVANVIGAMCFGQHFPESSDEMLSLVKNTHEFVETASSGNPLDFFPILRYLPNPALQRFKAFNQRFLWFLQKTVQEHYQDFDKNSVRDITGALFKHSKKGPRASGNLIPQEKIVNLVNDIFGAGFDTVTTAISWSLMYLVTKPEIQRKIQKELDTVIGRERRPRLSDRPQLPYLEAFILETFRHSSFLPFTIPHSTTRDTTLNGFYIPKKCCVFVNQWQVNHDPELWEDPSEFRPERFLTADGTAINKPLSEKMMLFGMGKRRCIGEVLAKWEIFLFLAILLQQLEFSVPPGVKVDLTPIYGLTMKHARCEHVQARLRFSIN
In words: CYP inhibition assay, 7-ethoxyresorufin O-deethylation. The class given is in vitro ADME. Conditions: pooled human liver microsomes, probe 7-ethoxyresorufin (O-deethylation), 0.5 μmol/L, pooled human hepatic microsome. How it is done: as §1, §2, §3, §4

Series [2] is described as follows: Metabolism stability test, rat liver microsomes. Type of series: in vitro ADME. The settings on record: amount at 0 minute = 100%.
The target in another series is T4, CYP2D6 (Homo sapiens, UniProt P10635).
T4 construct: enzyme, pooled human hepatic microsome 0.2 mg protein/mL; from tissue; host or cells: pooled human liver microsomes
T4 sequence (P10635 whole entry): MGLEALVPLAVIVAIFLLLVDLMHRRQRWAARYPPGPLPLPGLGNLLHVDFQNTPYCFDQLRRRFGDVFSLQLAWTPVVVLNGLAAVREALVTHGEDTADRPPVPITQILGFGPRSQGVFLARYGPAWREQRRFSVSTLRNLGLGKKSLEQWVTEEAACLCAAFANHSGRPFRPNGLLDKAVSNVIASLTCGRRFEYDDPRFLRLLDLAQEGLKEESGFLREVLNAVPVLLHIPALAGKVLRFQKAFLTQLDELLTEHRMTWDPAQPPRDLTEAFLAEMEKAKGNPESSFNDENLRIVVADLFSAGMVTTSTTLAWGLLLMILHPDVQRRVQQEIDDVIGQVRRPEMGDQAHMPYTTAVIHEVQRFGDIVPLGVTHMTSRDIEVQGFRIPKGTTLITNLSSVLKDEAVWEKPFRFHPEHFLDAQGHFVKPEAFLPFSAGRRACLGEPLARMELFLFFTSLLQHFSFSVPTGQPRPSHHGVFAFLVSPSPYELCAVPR
In words: CYP inhibition assay, dextromethorphan O-demethylation. Conditions: pooled human liver microsomes, probe dextromethorphan (O-demethylation), 5 μmol/L, pooled human hepatic microsome. Type of series: in vitro ADME. The protocol:
as §1, §2, §3, §4

T1 sequence (P08684 whole entry): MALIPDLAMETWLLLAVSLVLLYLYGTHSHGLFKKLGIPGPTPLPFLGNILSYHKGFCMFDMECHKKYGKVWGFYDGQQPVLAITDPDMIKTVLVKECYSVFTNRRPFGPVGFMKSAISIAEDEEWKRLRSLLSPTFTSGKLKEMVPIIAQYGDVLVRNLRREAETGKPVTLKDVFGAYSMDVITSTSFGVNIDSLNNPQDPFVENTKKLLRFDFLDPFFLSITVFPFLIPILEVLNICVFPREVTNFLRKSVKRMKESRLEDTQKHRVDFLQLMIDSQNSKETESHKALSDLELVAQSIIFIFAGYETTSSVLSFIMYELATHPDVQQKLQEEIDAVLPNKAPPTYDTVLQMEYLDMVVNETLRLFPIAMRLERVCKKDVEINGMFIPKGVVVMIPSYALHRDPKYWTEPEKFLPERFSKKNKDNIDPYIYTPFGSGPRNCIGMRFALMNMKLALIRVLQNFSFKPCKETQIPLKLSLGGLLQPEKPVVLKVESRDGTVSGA

With `CC(=O)Nc1c(C)c(C(OC(C)(C)C)C(=O)O)c(-c2ccc(C)c(C)c2)c(C)c1-c1ccc(C)c(C)c1` (stereo not drawn) [Compound I-6], the IC50 at 15 min against CYP3A4, against CYP1A2 and at CYP2D6 was not below 20 µM each time. In the series on HIV (HTLV-III B strain), this compound gave a pEC50 of 8.11. For the same compound, the “inhibition ratio of IKr tail peak current” value in series [1] was 3.5%. For the same compound, the “remaining amount of compound in liver microsomes of rat” value in series [2] was determined as 58%.
